Test results: patent publication US20220144850A1, “INDOLO HEPTAMYL OXIME ANALOGUE AS PARP INHIBITOR” (Chia Tai Tianqing Pharmaceutical Group Co., Ltd., priority 2019, published 2022)

Legend:
[1] = test system: BRCA1-mutated MDA-MB-436 cells; assay: Anti-proliferation experiment on MDA-MB-436 CTG cells; format: cell-based, human; conditions: 7 days incubation, CellTiter-Glo
Experimental: Experimental Example 2: Anti-Proliferation Experiment on MDA-MB-436 CTG Cells
Experimental materials: test compounds; RPMI-1640 medium; fetal bovine serum; penicillin/streptomycin antibiotic; MDA-MB-436 cell line; Envision multi-marker analyzer (PerkinElmer).
MDA-MB-436 cells were seeded in a white 96-well plate by adding 80 μL of cell suspension (containing 3000 MDA-MB-436 cells) to each well. The cell plate was incubated in a CO2 incubator overnight.
(§1) Test compounds were serially 5-fold diluted to the 8th concentration with a multichannel pipette, i.e. from 2 mM to 26 nM, and a duplicate well experiment was performed. 78 μL of medium was added to a intermediate plate, 2 μL of each of serially diluted compounds was transferred to corresponding wells of the intermediate plate, and after mixing, the mixture was transferred to the cell plate at 20 μL per well. The cell plate was incubated in a CO2 incubator for 7 days. Another cell plate was provided for reading signal values on the day of compound addition and these signal values were used as Max values in data analysis. Promega CellTiter-Glo was added to this cell plate at 25 μL per well and the luminescence signals were stabilized by incubation for 10 min at room temperature. Readings were taken using a PerkinElmer Envision multi-marker analyzer.
(§2) Promega CellTiter-Glo was added to the cell plate at 25 μL per well and the luminescence signals were stabilized by incubation for 10 min at room temperature. Readings were taken using a PerkinElmer Envision multi-marker analyzer.
2. Data analysis: the original data was converted to inhibition using the equation (sample−Min)/(Max−Min)×100%, and the IC50 value was then curve fitted using four parameters (obtained from the “log(inhibitor) vs. response-variable slope” model in GraphPad Prism). Table 2 provides the inhibitory activity of the compounds disclosed herein against MDA-MB-436 cell proliferation.

PARP1 = molecular target: T1, PARP1 (Homo sapiens, UniProt P09874); assay: PARP-1 enzymatic experiment (HT Universal Chemiluminescent PARP Assay kit); format: biochemical; conditions: chemiluminescence
T1 construct: purchased TREVIGEN
Experimental: Experimental Example 1: PARP-1 Enzymatic Experiment
Experimental materials: test compounds; HT Universal Chemiluminescent PARP Assay kit (purchased from TREVIGEN); PBS (purchased from Wisent); Triton X-100 (purchased from Macklin); Envision multi-marker analyzer (PerkinElmer).
(I) Preparation of Reagents:
• 1. Washing solution: Triton X-100 was added to 1-fold PBS, and the final concentration of Triton X-100 was 0.1%. • 2. 1-fold PARP buffer: the 20-fold PARP buffer in the kit was subjected to 20-fold dilution with water to prepare a 1-fold PARP buffer. This buffer was used to prepare the compound, enzyme solution and substrate solution. • 3. 1-fold Strep-Diluent solution: the 10-fold Strep-diluent in the kit was subjected to 10-fold dilution with water to prepare a 1-fold Strep-diluent solution.
(II) Preparation of Test Compounds:
Test compounds were serially 5-fold diluted to the 8th concentration with a multichannel pipette, i.e. from 200 μM to 2.56 nM, with the DMSO concentration being 100%. 2 μL of each of the inhibitors at various concentration gradients was added to a compound intermediate plate, and 38 μL of the 1-fold PARP buffer was then added; the two were mixed well for use, and the DMSO concentration was 5%.
(III) Experimental Method:
• a) The 1-fold PARP buffer was added to a test plate at 50 μL per well and incubated at 25° C. for 30 min. • b) After the incubation was completed, the liquid in the test plate was discarded, and each of the compounds at various concentration gradients was pipetted from the compound intermediate plate and added into the test plate at 10 μL per well. A duplicate-well experiment was performed. • c) The test plate was added with the enzyme solution (0.5 IU) at 15 μL per well. The compound and enzyme were incubated together at 25° C. for 10 min. • d) After the incubation was completed, 25 μL of the 1-fold PARP Cocktail (comprising 2.5 μL of 10-fold PARP Cocktail, 2.5 μL of 10-fold Activated DNA and 20 μL of 1-fold PARP buffer) was added to each well of the test plate. The test plate was incubated at 25° C. for 1 h. The final concentration of the compound was 2 μM to 0.0256 nM, and the DMSO concentration was […]. • e) After the incubation was completed, the test plate was washed twice with 200 μL of washing solution per well and then washed twice with 200 μL of PBS per well. • f) Strep-HRP in the kit was subjected to 500-fold dilution with the 1-fold Strep-Diluent solution, added to the test plate at 50 μL per well, and then incubated at 25° C. for 1 h. • g) After the incubation was completed, the test plate was washed twice with 200 μL of washing solution per well and then washed twice with 200 μL of PBS per well.
PeroxyGlow A and B in the kit were mixed at ratio of 1:1, and the mixed solution was added to the test plate at 100 μL per well. Chemiluminescence was immediately read using a PerkinElmer Envision multi-marker analyzer with an integration time of 0.5 s.
Data analysis: the original data was converted to inhibition using the equation (sample−Min)/(Max−Min)×[…], and the IC50 value was then curve filled using four parameters (obtained from the “log(inhibitor) vs. response-variable slope” model in GraphPad Prism).

[2] = Single-dose pharmacokinetic study in mice; format: in vivo; conditions: male C57BL/6 mice, IV: 1 mg/kg PO: 5 mg/kg
Source text: Experimental Example 8: Single-Dose Pharmacokinetic Study in Mice
Experimental objective: to evaluate the pharmacokinetic behavior by using male C57BL/6 mice as test animals and determining the drug concentrations of the compounds in the plasma, liver and cerebrospinal fluid after single-dose administration.
Experimental method: healthy adult male C57BL/6 mice were selected for intragastric administration. A candidate compound was mixed with an appropriate amount of 10% DMSO/90% (20% hydroxypropyl-β-cyclodextrin), vortexed and sonicated to prepare a 0.5 mg/mL clear solution for later use. After the mice were administered intravenously at 1 mg/kg and orally at 5 mg/kg, whole blood was collected at certain time points, and plasma was separated, and liver and cerebrospinal fluid were collected. After pretreatment of the samples, the drug concentration was measured by LC-MS/MS, and pharmacokinetic parameters were calculated using Phoenix WinNonlin software.

[3] = test system: BRCA-wild type MDA-MB-231 cells; assay: Anti-proliferation experiment on MDA-MB-231 CTG cells; format: cell-based; conditions: Homo sapiens, MDA-MB-231, 72 h; 3 days incubation, CellTiter-Glo
Experimental: Experimental Example 3: Anti-Proliferation Experiment on MDA-MB-231 CTG Cells
Experimental materials: test compounds; R DMEM medium; fetal bovine serum; penicillin/streptomycin antibiotic; MDA-MB-231 cell line; Envision multi-label analyzer.
MDA-MB-231 cells were seeded in a white 96-well plate by adding 80 μL of cell suspension (containing 5000 MDA-MB-231 cells) to each well. The cell plate was incubated in a CO2 incubator overnight.
as §1, with “Eight concentration points were set for each compound, test compounds” for “Test compounds”, “serially 3-fold” for “serially 5-fold”, “to 920” for “to 26”, “for 3” for “for 7”
as §2
Data analysis: the original data was converted to inhibition using the equation (sample−Min)/(Max−Min)×100%, and the IC50 value was then curve fitted using four parameters (obtained from the “log(inhibitor) vs. response-variable slope” model in GraphPad Prism). Table 1 provides the inhibitory activity of the compounds disclosed herein against MDA-MB-231 cell proliferation.

[4] = Homo sapiens, MDA-MB-436, 168 h

T1 sequence (P09874 whole entry): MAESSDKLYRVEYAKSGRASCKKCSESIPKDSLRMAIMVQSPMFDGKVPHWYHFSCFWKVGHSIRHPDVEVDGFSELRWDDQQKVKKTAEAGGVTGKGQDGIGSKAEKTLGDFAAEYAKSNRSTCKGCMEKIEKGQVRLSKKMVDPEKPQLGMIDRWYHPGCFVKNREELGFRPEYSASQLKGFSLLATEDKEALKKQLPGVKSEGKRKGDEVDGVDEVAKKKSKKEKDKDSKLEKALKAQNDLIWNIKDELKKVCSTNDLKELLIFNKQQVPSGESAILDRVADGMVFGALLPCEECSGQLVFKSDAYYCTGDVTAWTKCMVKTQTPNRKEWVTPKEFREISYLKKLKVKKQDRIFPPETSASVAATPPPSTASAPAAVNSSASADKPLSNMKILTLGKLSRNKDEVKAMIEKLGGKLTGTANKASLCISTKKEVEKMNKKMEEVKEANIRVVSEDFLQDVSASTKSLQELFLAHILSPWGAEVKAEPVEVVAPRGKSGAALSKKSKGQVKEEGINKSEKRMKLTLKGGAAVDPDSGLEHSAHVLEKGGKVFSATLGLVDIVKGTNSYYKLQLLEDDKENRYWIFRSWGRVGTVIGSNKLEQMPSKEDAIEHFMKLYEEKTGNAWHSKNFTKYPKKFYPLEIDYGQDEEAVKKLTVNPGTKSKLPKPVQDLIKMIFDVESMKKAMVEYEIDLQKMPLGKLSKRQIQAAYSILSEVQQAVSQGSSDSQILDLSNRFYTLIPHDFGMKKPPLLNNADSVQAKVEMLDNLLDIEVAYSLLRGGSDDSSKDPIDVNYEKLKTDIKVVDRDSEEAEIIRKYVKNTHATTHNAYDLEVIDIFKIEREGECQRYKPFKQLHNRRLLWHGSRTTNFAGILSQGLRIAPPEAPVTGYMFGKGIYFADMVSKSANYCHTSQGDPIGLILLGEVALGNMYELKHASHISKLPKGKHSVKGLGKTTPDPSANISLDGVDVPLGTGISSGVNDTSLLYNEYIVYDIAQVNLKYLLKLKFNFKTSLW

| IC50 [1, 4] | IC50 (PARP1) | IC50 [1] | SMILES | further results |
| --- | --- | --- | --- | --- |
| 27 nM |  |  | O=C1NOCc2c(-c3ccc(C4CCCNC4)cc3F)[nH]c3cc(F)cc1c23 (racemic) [Example 10] |  |
| 61.6 nM | 3.8 nM |  | O=C1NOCc2c(-c3ccc(C4CCCN4CCO)c(F)c3)[nH]c3cccc1c23 (centres unmarked) [Example 20_B] |  |
|  | 4.9 nM | 125 nM | O=C1NOCc2c(-c3ccc(C4CCCN4)cc3F)[nH]c3cc(F)cc1c23 (single isomer, unassigned) [Example 22_A] |  |
| 69.8 nM | 5.6 nM |  | [2H]C1([2H])ONC(=O)c2cccc3[nH]c(-c4ccc(C5CCCN5)c(F)c4)c1c23 (centres unmarked) [Example 21_B] |  |
| 44.6 nM | 2.8 nM |  | O=C1NOCc2c(-c3ccc(C4CCCN4)nc3)[nH]c3cccc1c23 (centres unmarked) [Example 16_B] |  |
|  |  |  | CNCc1ccc(-c2[nH]c3cc(F)cc4c3c2CCNC4=O)cc1 [Rucaparib, reference compound] | Maximum concentration [2]: 24.8 nM; bioavailability ([2]; mouse, plasma): 14.6%; clearance ([2]; mouse, plasma): 99.9 mL/min/kg; Vd ([2]; mouse, plasma, read-out: Apparent volume of distribution): 13.1 L/kg |
| 24 nM | 3.5 nM |  | O=C1NOCc2c(-c3ccc(C4(F)CCCNC4)c(F)c3)[nH]c3cccc1c23 (centres unmarked) [Example 19_B] |  |
|  | 4.2 nM | 61.6 nM | O=C1NOCc2c(-c3ccc(C4CCCN4)cc3F)[nH]c3cc(F)cc1c23 (single isomer, unassigned) [Example 22_B] | IC50 [3]: > 10000 nM |
| 134 nM |  |  | O=C1NOCc2c(-c3ccc(C4=CNCC4)c(F)c3)[nH]c3cccc1c23 [Example 18] |  |
|  | 3.4 nM | 50 nM | O=C1NOCc2c(-c3ccc(C4CCCN4)c(F)c3)[nH]c3cc(F)cc1c23 (single isomer, unassigned) [Example 28_B] |  |
|  | 3.6 nM | 29.3 nM | CC1(c2ccc(-c3[nH]c4cc(F)cc5c4c3CONC5=O)cc2F)CCCN1 (single isomer, unassigned) [Example 26_B] |  |
| 89.6 nM | 7.1 nM |  | [2H]C1(c2ccc(-c3[nH]c4cccc5c4c3CONC5=O)cc2F)CCCN1 (centres unmarked) [Example 15_B] |  |
| 30.9 nM | 3.7 nM |  | [2H]C1([2H])ONC(=O)c2cccc3[nH]c(-c4ccc(C5(C)CCCN5)c(F)c4)c1c23 (centres unmarked) [Example 23_A] |  |
|  | 2.5 nM | 4.4 nM | O=C1NOCc2c(-c3ccc(C4CCCN4)cc3)[nH]c3cc(F)cc1c23 (single isomer, unassigned) [Example 24_B] |  |
| 73 nM | 2.9 nM |  | O=C1NOCc2c(-c3ccc(C4CCCN4)c(F)c3)[nH]c3cc(F)cc1c23 (single isomer, unassigned) [Example 28_A] |  |
| 20.8 nM | 2.7 nM |  | [2H]C1(c2ccc(-c3[nH]c4cccc5c4c3CONC5=O)cc2)CCCN1 (centres unmarked) [Example 8_A] |  |

| SMILES | IC50 [1, 4] | IC50 (PARP1) | IC50 [1] | further results |
| --- | --- | --- | --- | --- |
| CC1(c2ccc(-c3[nH]c4cc(F)cc5c4c3CONC5=O)cc2)CCCN1 (centres unmarked) [Example 25_B] |  | 2.8 nM | 20.7 nM |  |
